Experiments:
Test in all cases: competitive isoTOP-ABPP
Format in all cases: binding
[1] = target: T1, RPL10 60S ribosomal protein L10 (Homo sapiens, UniProt P27635); conditions: 50 uM, 231 sol, in vitro; for R value (DMSO/fragment) for probe 1 labeling: P27635_K121
T1 construct: isoTOP-ABPP experiments performed in cell lysates (in vitro); endogenous in cells; host or cells: soluble proteome of human cancer cell lines (MDA-MB-231; Ramos and Jurkat also prepared)
Procedure, shortened: (§1)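 Probe: STP-alkyne, 0.1 mM, 1 h RT, after fragment pretreatment of lysate (esters 50 μM; guanidinylators 100 μM). Tags: light = compound, heavy = DMSO, via CuAAC. Replicates averaged if SD <60% of mean; otherwise lowest ratio used when any R <4.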

[2] = target: T2, GBAS Protein NipSnap homolog 2 (Homo sapiens, UniProt O75323); conditions: 50 uM, 231 sol, in vitro; for R value (DMSO/fragment) for probe 1 labeling: O75323_K75
T2 construct: isoTOP-ABPP experiments performed in cell lysates (in vitro); endogenous in cells; host or cells: MDA-MB-231 soluble lysate
T2 sequence (O75323 24-286): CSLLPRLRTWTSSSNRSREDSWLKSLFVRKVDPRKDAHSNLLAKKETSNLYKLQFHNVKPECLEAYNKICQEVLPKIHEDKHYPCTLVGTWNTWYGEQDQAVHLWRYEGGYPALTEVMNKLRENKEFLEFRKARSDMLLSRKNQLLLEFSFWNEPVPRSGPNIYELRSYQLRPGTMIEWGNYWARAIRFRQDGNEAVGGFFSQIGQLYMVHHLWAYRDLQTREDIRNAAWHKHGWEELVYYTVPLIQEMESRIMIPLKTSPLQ
Procedure, shortened: as §1

[3] = target: T3, FECH Ferrochelatase, mitochondrial (Homo sapiens, UniProt P22830); conditions: 50 uM, 231 sol, in vitro; for R value (DMSO/fragment) for probe 1 labeling: P22830_K304
T3 construct: isoTOP-ABPP experiments performed in cell lysates (in vitro); endogenous in cells; host or cells: soluble proteome of human cancer cell lines (MDA-MB-231; Ramos and Jurkat also prepared)
T3 sequence (P22830 55-423): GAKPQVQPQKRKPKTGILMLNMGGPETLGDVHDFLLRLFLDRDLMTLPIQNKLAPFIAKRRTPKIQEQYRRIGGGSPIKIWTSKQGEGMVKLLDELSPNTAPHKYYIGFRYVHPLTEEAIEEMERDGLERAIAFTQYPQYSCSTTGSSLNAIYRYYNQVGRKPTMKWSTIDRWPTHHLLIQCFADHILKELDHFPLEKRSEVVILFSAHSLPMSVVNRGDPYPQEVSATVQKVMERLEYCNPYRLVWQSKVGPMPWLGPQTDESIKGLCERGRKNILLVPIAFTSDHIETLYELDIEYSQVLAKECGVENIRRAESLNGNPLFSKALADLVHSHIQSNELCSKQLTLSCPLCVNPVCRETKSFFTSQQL
Procedure, shortened: as §1

[4] = target: T4, MAP2K3 Dual specificity mitogen-activated protein kinase (Homo sapiens, UniProt P46734); conditions: 50 uM, 231 sol, in vitro; for R value (DMSO/fragment) for probe 1 labeling: P46734_K93
T4 construct: isoTOP-ABPP experiments performed in cell lysates (in vitro); endogenous in cells; host or cells: soluble proteome of human cancer cell lines (MDA-MB-231; Ramos and Jurkat also prepared)
T4 sequence (P46734 1-347): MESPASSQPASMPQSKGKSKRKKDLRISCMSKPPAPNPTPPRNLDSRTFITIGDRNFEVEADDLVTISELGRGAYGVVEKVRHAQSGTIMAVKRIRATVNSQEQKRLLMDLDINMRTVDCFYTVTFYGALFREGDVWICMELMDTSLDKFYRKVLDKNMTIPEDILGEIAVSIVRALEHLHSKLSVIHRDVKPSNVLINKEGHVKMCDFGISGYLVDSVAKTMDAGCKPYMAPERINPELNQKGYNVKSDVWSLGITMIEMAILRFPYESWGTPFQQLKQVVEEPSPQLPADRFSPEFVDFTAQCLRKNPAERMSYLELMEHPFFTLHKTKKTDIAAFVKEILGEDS
Procedure, shortened: as §1

[5] = target: T5, ENOPH1 Enolase-phosphatase E1 (Homo sapiens, UniProt Q9UHY7); conditions: 50 uM, 231 sol, in vitro; for R value (DMSO/fragment) for probe 1 labeling: Q9UHY7_K111
T5 construct: endogenous in cells; host or cells: MDA-MB-231 (soluble fraction of lysate)
Procedure, shortened: as §1

T5 sequence (Q9UHY7 whole entry, the tested form may be a part): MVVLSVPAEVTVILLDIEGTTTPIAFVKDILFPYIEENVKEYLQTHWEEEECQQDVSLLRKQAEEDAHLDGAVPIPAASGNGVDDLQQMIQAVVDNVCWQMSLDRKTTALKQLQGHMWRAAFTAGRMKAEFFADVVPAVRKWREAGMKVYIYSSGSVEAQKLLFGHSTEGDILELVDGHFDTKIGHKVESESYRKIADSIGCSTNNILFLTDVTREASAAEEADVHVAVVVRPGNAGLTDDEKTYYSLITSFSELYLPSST

Row | Compound | R value (DMSO/fragment) for probe 1 labeling [1] | R value (DMSO/fragment) for probe 1 labeling [2] | R value (DMSO/fragment) for probe 1 labeling [3] | R value (DMSO/fragment) for probe 1 labeling [4] | R value (DMSO/fragment) for probe 1 labeling [5] | isoTOP-ABPP reactivity ratio at lysine O75323_K75 [2] | isoTOP-ABPP reactivity ratio at lysine P22830_K304 [3] | isoTOP-ABPP reactivity ratio at lysine Q9UHY7_K111 [5] | isoTOP-ABPP reactivity ratio at lysine P27635_K121 [1] | isoTOP-ABPP reactivity ratio at lysine P46734_K93 [4]
1 | O=C(CCc1cn(-c2ccccc2)nc1-c1ccccc1)Oc1c(F)c(F)c(F)c(F)c1F [fragment 19, Pentafluorophenyl 3-(1,3-diphenyl-1H-pyrazol-4-yl)propanoate] | 0.9 | 1.0 | 1.8 | 0.9 | 1.0 | – | – | – | – | –
2 | O=C(Oc1c(F)c(F)c(F)c(F)c1F)C(c1ccccc1)c1ccccc1 [fragment 20, Pentafluorophenyl 2,2-diphenylacetate] | 0.7 | 0.9 | 1.7 | 0.9 | 1.0 | – | – | – | – | –
3 | O=C(Oc1c(F)c(F)c(F)c(F)c1F)c1cc(C(F)(F)F)cc(C(F)(F)F)c1 [fragment 21, Pentafluorophenyl 3,5-bis(trifluoromethyl)benzoate] | 0.8 | 0.8 | 1.0 | 0.9 | 1.0 | – | – | – | – | –
4 | Cn1cc(CC(=O)Oc2c(F)c(F)c(F)c(F)c2F)c2ccccc21 [fragment 22, Pentafluorophenyl 2-(1-methyl-1H-indol-3-yl)acetate] | 0.9 | 1.5 | 2.0 | 0.9 | 1.4 | – | – | – | – | –
5 | COc1cc(CCC(=O)Oc2c(F)c(F)c(F)c(F)c2F)cc(OC)c1OC [fragment 23, Pentafluorophenyl 3-(3,4,5-trimethoxyphenyl)propanoate] | – | 1.1 | – | 0.9 | 1.3 | – | – | – | – | –
6 | O=C(Oc1c(F)c(F)c(F)c(F)c1F)C1CCN(C(=O)OCc2ccccc2)CC1 [fragment 24, 1-Benzyl 4-(pentafluorophenyl) piperidine-1,4-dicarboxylate] | – | – | – | – | – | 1.0 | 1.5 | 1.4 | – | –
7 | O=C(Oc1c(F)c(F)c(F)c(F)c1F)c1ccc2ccccc2n1 [fragment 25, Pentafluorophenyl quinoline-2-carboxylate] | – | – | – | – | – | 1.4 | 1.0 | 1.1 | – | –
8 | O=C(CCc1coc2cc(F)ccc2c1=O)Oc1c(F)c(F)c(F)c(F)c1F [fragment 26, Pentafluorophenyl 3-(7-fluoro-4-oxo-4H-chromen-3-yl)propanoate] | – | – | – | – | – | 4.2 | 1.7 | 1.3 | 0.9 | 1.1
9 | O=C(CN1C(=O)c2ccccc2C1=O)Oc1c(F)c(F)c(F)c(F)c1F [fragment 27, Pentafluorophenyl 2-(1,3-dioxoisoindolin-2-yl)acetate] | – | – | – | – | – | 20.0 | 1.5 | 1.5 | – | –
10 | CCn1cc(C(=O)Oc2c(F)c(F)c(F)c(F)c2F)c(=O)c2ccc(C)nc21 [fragment 28, Pentafluorophenyl 1-ethyl-7-methyl-4-oxo-1,4-dihydro-1,8-naphthyridine-3-carboxylate] | – | – | – | – | – | 1.0 | 1.5 | 1.0 | – | –

From US20210255193A1, “LYSINE REACTIVE PROBES AND USES THEREOF” (The Scripps Research Institute, priority 2017, published 2021)
